Experimental findings from patent US8501770B2 (ArQule, Inc., priority 2009, dated 2013) are described below.

Broadly, the IC50 is the concentration that gives 50% inhibition.

The target in the experiment is Full-length inactive AKT1 (Homo sapiens, UniProt P31749). The experiment is described as follows: Inactive Akt Alpha Screen Assay. It is filed as biochemical. The note with it: values not marked with "*"; read-out: Akt1 IC50, (AlphaScreen). The method, boiled down: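 AlphaScreen read-out (excitation 640 nm, emission 570 nm) after 90 min incubation at room temperature in the dark. Signal comes from crosstide phosphorylation by AKT1, which was activated by added PDK1, MAPKAPK2, ATP and lipid vesicles, captured via phospho-AKT substrate antibody and streptavidin beads.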
Full-length inactive AKT1, sequence (P31749 whole entry): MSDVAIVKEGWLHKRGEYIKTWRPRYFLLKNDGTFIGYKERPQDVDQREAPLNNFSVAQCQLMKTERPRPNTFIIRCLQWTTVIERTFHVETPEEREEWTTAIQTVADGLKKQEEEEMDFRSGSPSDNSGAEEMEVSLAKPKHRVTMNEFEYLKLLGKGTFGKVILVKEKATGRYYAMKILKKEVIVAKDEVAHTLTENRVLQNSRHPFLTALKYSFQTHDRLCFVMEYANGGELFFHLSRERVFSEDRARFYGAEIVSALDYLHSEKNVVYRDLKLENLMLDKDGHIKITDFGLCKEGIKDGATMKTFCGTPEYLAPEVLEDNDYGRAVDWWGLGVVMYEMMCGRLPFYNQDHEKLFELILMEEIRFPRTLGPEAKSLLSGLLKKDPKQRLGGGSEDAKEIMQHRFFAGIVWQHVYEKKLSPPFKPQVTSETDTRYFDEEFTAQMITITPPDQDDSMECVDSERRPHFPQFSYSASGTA
Background: In Alpha technology, singlet oxygen from a donor bead excites a nearby acceptor bead.
On to `Cc1cnc2c(c1)nc(-c1cccnc1N)n2-c1ccc(CNC(=O)c2ccccc2-n2cccc2)cc1` [Example 214, N-(4-(2-(2-aminopyridin-3-yl)-6-methyl-3H-imidazo[4,5-b]pyridin-3-yl)benzyl)-2-(1H-pyrrol-1-yl)benzamide], for which the IC50 came to 0.023 µM.

`Cc1cnc2c(c1)nc(-c1cccnc1N)n2-c1ccc(CNC(=O)C2Cc3ccccc3C2)cc1` [Example 215, N-(4-(2-(2-aminopyridin-3-yl)-6-methyl-3H-imidazo[4,5-b]pyridin-3-yl)benzyl)-2,3-dihydro-1H-indene-2-carboxamide]: the IC50 is 0.73 µM.

With `Cc1cccc(C(=O)NCc2ccc(-n3c(-c4cccnc4N)nc4cc(C)cnc43)cc2)c1` [Example 216, N-(4-(2-(2-aminopyridin-3-yl)-6-methyl-3H-imidazo[4,5-b]pyridin-3-yl)benzyl)-3-methylbenzamide], the IC50 worked out at 0.077 µM. For the molecule `Cc1cnc2c(c1)nc(-c1cccnc1N)n2-c1ccc(CNC(=O)c2ccc(Cl)cc2F)cc1` [Example 217, N-(4-(2-(2-aminopyridin-3-yl)-6-methyl-3H-imidazo[4,5-b]pyridin-3-yl)benzyl)-4-chloro-2-fluorobenzamide], the IC50 worked out at 0.084 µM. The same measure for `Cc1cnc2c(c1)nc(-c1cccnc1N)n2-c1ccc(CNC(=O)c2ccccc2Cl)cc1` [Example 218, N-(4-(2-(2-aminopyridin-3-yl)-6-methyl-3H-imidazo[4,5-b]pyridin-3-yl)benzyl)-2-chlorobenzamide]: 0.063 µM; for `Cc1cnc2c(c1)nc(-c1cccnc1N)n2-c1ccc(CNC(=O)Cc2ccccc2)cc1` [Example 219, N-(4-(2-(2-aminopyridin-3-yl)-6-methyl-3H-imidazo[4,5-b]pyridin-3-yl)benzyl)-2-phenylacetamide]: 0.23 µM. `CC(=O)Nc1ccc(C(=O)NCc2ccc(-n3c(-c4cccnc4N)nc4cc(C)cnc43)cc2)cc1` [Example 220, 4-acetamido-N-(4-(2-(2-aminopyridin-3-yl)-6-methyl-3H-imidazo[4,5-b]pyridin-3-yl)benzyl)benzamide]: the IC50 came out at 0.054 µM. Turning to `COc1ccccc1C(=O)NCc1ccc(-n2c(-c3cccnc3N)nc3cc(C)cnc32)cc1` [Example 221, N-(4-(2-(2-aminopyridin-3-yl)-6-methyl-3H-imidazo[4,5-b]pyridin-3-yl)benzyl)-2-methoxybenzamide], the IC50 is 0.26 µM.

Take `Cc1cnc2c(c1)nc(-c1cccnc1N)n2-c1ccc(CNC(=O)c2ccc(N(C)C)cc2)cc1` [Example 222, N-(4-(2-(2-aminopyridin-3-yl)-6-methyl-3H-imidazo[4,5-b]pyridin-3-yl)benzyl)-4-(dimethylamino)benzamide]: the IC50 is 0.043 µM.

`Cc1cnc2c(c1)nc(-c1cccnc1N)n2-c1ccc(CNC(=O)c2ccccc2C)cc1` [Example 223, N-(4-(2-(2-aminopyridin-3-yl)-6-methyl-3H-imidazo[4,5-b]pyridin-3-yl)benzyl)-2-methylbenzamide]: the IC50 stood at 0.03 µM. With `Cc1cnc2c(c1)nc(-c1cccnc1N)n2-c1ccc(CNC(=O)c2cccc3ccccc23)cc1` [Example 224, N-(4-(2-(2-aminopyridin-3-yl)-6-methyl-3H-imidazo[4,5-b]pyridin-3-yl)benzyl)-1-naphthamide], the IC50 stood at 0.05 µM. The same measure for `Cc1cnc2c(c1)nc(-c1cccnc1N)n2-c1ccc(CNC(=O)c2ccccc2Cc2ccccc2)cc1` [Example 225, N-(4-(2-(2-aminopyridin-3-yl)-6-methyl-3H-imidazo[4,5-b]pyridin-3-yl)benzyl)-2-benzylbenzamide]: 0.011 µM; for `Nc1ncccc1-c1nc2ccc(-c3ccc(CO)cc3)nc2n1-c1ccc(CNC(=O)c2ccccc2)cc1` [Example 226, N-(4-(2-(2-aminopyridin-3-yl)-5-(4-(hydroxymethyl)phenyl)-3H-imidazo[4,5-b]pyridin-3-yl)benzyl)benzamide]: 0.018 µM; for `Cc1cnc2c(c1)nc(-c1cccnc1N)n2-c1ccc(CNC(=O)OC(C)(C)C)cc1` [Example 227, tert-butyl 4-(2-(2-aminopyridin-3-yl)-6-methyl-3H-imidazo[4,5-b]pyridin-3-yl)benzylcarbamate]: 0.47 µM. In the case of `Cc1cnc2c(c1)nc(-c1cccnc1N)n2-c1ccc(CNC(=O)c2ccc(F)cc2)cc1` [Example 228, N-(4-(2-(2-aminopyridin-3-yl)-6-methyl-3H-imidazo[4,5-b]pyridin-3-yl)benzyl)-4-fluorobenzamide], the IC50 is 0.24 µM. To `CC(=O)Nc1cccc(C(=O)NCc2ccc(-n3c(-c4cccnc4N)nc4cc(C)cnc43)cc2)c1` [Example 229, 3-acetamido-N-(4-(2-(2-aminopyridin-3-yl)-6-methyl-3H-imidazo[4,5-b]pyridin-3-yl)benzyl)benzamide] belongs 0.025 µM; to `Cc1cnc2c(c1)nc(-c1cccnc1N)n2-c1ccc(CNC(=O)c2ccc(C(C)C)cc2)cc1` [Example 230, N-(4-(2-(2-aminopyridin-3-yl)-6-methyl-3H-imidazo[4,5-b]pyridin-3-yl)benzyl)-4-isopropylbenzamide], 0.19 µM; to `Cc1cnc2c(c1)nc(-c1cccnc1N)n2-c1ccc(CNC(=O)c2ccc3nc(C)ccc3c2)cc1` [Example 231, N-(4-(2-(2-aminopyridin-3-yl)-6-methyl-3H-imidazo[4,5-b]pyridin-3-yl)benzyl)-2-methylquinoline-6-carboxamide], 0.02 µM. As to `Cc1cnc2c(c1)nc(-c1cccnc1N)n2-c1ccc(CNC(=O)c2cccc(F)c2)cc1` [Example 232, N-(4-(2-(2-aminopyridin-3-yl)-6-methyl-3H-imidazo[4,5-b]pyridin-3-yl)benzyl)-3-fluorobenzamide], the IC50 amounted to 0.041 µM. To `CC(C)c1ccc(C(=O)NCc2ccc(-n3c(-c4cccnc4N)nc4cc(-c5cccnc5)cnc43)cc2)cc1` [Example 233, N-(4-(2-(2-aminopyridin-3-yl)-6-(pyridin-3-yl)-3H-imidazo[4,5-b]pyridin-3-yl)benzyl)-4-isopropylbenzamide] belongs 0.14 µM; to `Nc1ncccc1-c1nc2cc(F)cnc2n1-c1ccc(CC(=O)Nc2ccccc2)cc1` [Example 234, 2-(4-(2-(2-aminopyridin-3-yl)-6-fluoro-3H-imidazo[4,5-b]pyridin-3-yl)phenyl)-N-phenylacetamide], 0.053 µM.

As to `Nc1ncccc1-c1nc2ccc(-c3ccncc3)nc2n1-c1ccc(CNC(=O)c2ccccc2)cc1` [Example 235, N-(4-(2-(2-aminopyridin-3-yl)-5-(pyridin-4-yl)-3H-imidazo[4,5-b]pyridin-3-yl)benzyl)benzamide], the IC50 turned out to be 0.13 µM. To `CC(=O)Nc1ccc(-c2ccc3nc(-c4cccnc4N)n(-c4ccc(CNC(=O)c5ccccc5)cc4)c3n2)cc1` [Example 236, N-(4-(5-(4-acetamidophenyl)-2-(2-aminopyridin-3-yl)-3H-imidazo[4,5-b]pyridin-3-yl)benzyl)benzamide] belongs 0.033 µM; to `Nc1ncccc1-c1nc2cc(-c3cc[nH]c3)cnc2n1-c1ccc(CNC(=O)c2ccccc2)cc1` [Example 237, N-(4-(2-(2-aminopyridin-3-yl)-6-(1H-pyrrol-3-yl)-3H-imidazo[4,5-b]pyridin-3-yl)benzyl)benzamide], 0.032 µM.

As to `CC(=O)Nc1ccc(C(=O)NCc2ccc(-n3c(-c4cccnc4N)nc4cc(-c5cccnc5)cnc43)cc2)cc1` [Example 238, 4-acetamido-N-(4-(2-(2-aminopyridin-3-yl)-6-(pyridin-3-yl)-3H-imidazo[4,5-b]pyridin-3-yl)benzyl)benzamide], the IC50 was found to be 0.042 µM. To `Nc1ncccc1-c1nc2cc(-c3cccnc3)cnc2n1-c1ccc(CNC(=O)c2cccc(F)c2)cc1` [Example 239, N-(4-(2-(2-aminopyridin-3-yl)-6-(pyridin-3-yl)-3H-imidazo[4,5-b]pyridin-3-yl)benzyl)-3-fluorobenzamide] belongs 0.021 µM; to `Nc1ncccc1-c1nc2cc(-c3ccc(C(=O)O)o3)cnc2n1-c1ccc(CNC(=O)c2ccccc2)cc1` [Example 240, 5-(2-(2-aminopyridin-3-yl)-3-(4-(benzamidomethyl)phenyl)-3H-imidazo[4,5-b]pyridin-6-yl)furan-2-carboxylic acid], 0.016 µM; to `CCOC(=O)Cc1ccc(-n2c(-c3cccnc3N)nc3ccc(Cl)nc32)cc1` [Example 241, ethyl 2-(4-(2-(2-aminopyridin-3-yl)-5-chloro-3H-imidazo[4,5-b]pyridin-3-yl)phenyl)acetate], 0.33 µM. `CCOC(=O)Cc1ccc(-n2c(-c3cccnc3N)nc3ccc(-c4cccnc4)nc32)cc1` [Example 242, ethyl 2-(4-(2-(2-aminopyridin-3-yl)-5-(pyridin-3-yl)-3H-imidazo[4,5-b]pyridin-3-yl)phenyl)acetate]: the IC50 turned out to be 0.064 µM.

Consider `CCOC(=O)Cc1ccc(-n2c(-c3cccnc3N)nc3ccc(-c4cccc(NC(C)=O)c4)nc32)cc1` [Example 243, ethyl 2-(4-(5-(3-acetamidophenyl)-2-(2-aminopyridin-3-yl)-3H-imidazo[4,5-b]pyridin-3-yl)phenyl)acetate], for which the IC50 was 0.32 µM. As for `Cc1ccc2cc(C(=O)NCc3ccc(-n4c(-c5cccnc5N)nc5cc(-c6cccnc6)cnc54)cc3)ccc2n1` [Example 244, N-(4-(2-(2-aminopyridin-3-yl)-6-(pyridin-3-yl)-3H-imidazo[4,5-b]pyridin-3-yl)benzyl)-2-methylquinoline-6-carboxamide], the IC50 is 0.022 µM. As for `Cc1ccc2nc(-c3cccnc3N)n(-c3ccc(CNC(=O)c4ccc(C(C)C)cc4)cc3)c2n1` [Example 245, N-(4-(2-(2-aminopyridin-3-yl)-5-methyl-3H-imidazo[4,5-b]pyridin-3-yl)benzyl)-4-isopropylbenzamide], the IC50 was determined as 0.014 µM. To `Cc1ccc2nc(-c3cccnc3N)n(-c3ccc(CNC(=O)c4ccccc4)cc3)c2n1` [Example 246, N-(4-(2-(2-aminopyridin-3-yl)-5-methyl-3H-imidazo[4,5-b]pyridin-3-yl)benzyl)benzamide] belongs 0.02 µM.
